Data: the METLIN SMRT retention time set (Domingo-Almenara et al. 2019)

Assay: gradient 5% acetonitrile 3 min, to 50% in 2 min, to 85% in 15 min, held 3 min, 100 µL/min
Conditions: column: Zorbax Extend-C18 2.1 x 50 mm; eluents: water / acetonitrile, 0.1% formic acid
Summary of the method: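 Retention times of pure standards were taken from adduct peaks that were selected by computer and manually inspected. Over 3 months, mixtures of ~100 molecules were run by HPLC–quadrupole time-of-flight mass spectrometry in positive and negative ionization mode. The Zorbax Extend-C18 column (2.1 × 50 mm, 1.8 μm) ran at 100 μL/min in water and acetonitrile, each containing 0.1% formic acid, with 40 μL dead volume and 900 μL dwell volume.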

| Compound | RP-LC retention time [s] |
| --- | --- |
| CC(C)OC(=O)COc1cc(O)c2c(=O)cc(-c3ccccc3)oc2c1 | 1170 |
| CCc1ccc(CNC(=O)Cc2nnc(-c3cnccn3)o2)cc1 | 739 |
| Cc1ccc(C)c(NS(=O)(=O)c2ccc(-c3nnc(C4CCC4)o3)o2)c1 | 960 |
| CC(C)c1nnc2n1CCN(C(=O)c1nccc3ccccc13)C2 | 605 |
| Cc1occc1-c1nnc2sc(COc3ccccc3Cl)nn12 | 994 |
| Cc1sc2ccn(C)c(=O)c2c1C(=O)NCc1cc(F)ccc1F | 781 |
| Fc1ccc(-c2nc(-c3ccc(-n4cccn4)nc3)no2)c(F)c1 | 1170 |
| CS(=O)(=O)N1CCOc2ccc(CCC(=O)NCC3CCCO3)cc2C1 (configuration not stated) | 666 |
| O=c1n(Cc2cccc(F)c2)nc2c(S(=O)(=O)N3CCCC3)cccn12 | 1050 |
| O=C(Cn1nc2c(SC3CCCCC3)nccn2c1=O)N1CCN(c2ccc(F)cc2)CC1 | 1080 |
| Cc1ccc(CNC(=O)Cn2c(=O)cc(-c3nc(C)no3)c3ccccc32)cc1 | 857 |
| O=C(CCn1nnc2cc(-c3noc(-c4cccc(F)c4)n3)ccc21)N1CCCC1 | 928 |
| O=C(Nc1ncc(Cc2ccc(F)cc2)s1)c1ccc([N+](=O)[O-])cc1 | 937 |
| CCN1CCN(C(=O)CC2COc3ccc(Cl)cc3N2Cc2ccccc2)CC1 (configuration not stated) | 730 |
| CCOc1ncccc1C(=O)Nc1c(C)nc2sc(C)c(C)n2c1=O | 723 |
| Cc1ccc(-n2cc3c(N4CCCC(C(=O)NCc5ccc(C)c(C)c5)C4)ncnc3n2)cc1 (configuration not stated) | 772 |
| COc1ccc(CC(=O)N2CCC3(C2)C(=O)Nc2ccccc23)cc1Cl (configuration not stated) | 761 |
| COc1ccc(CNC(=O)c2cn3cc(Cl)ccc3n2)cc1 | 811 |
| CCCNC(=O)c1ccc2ncn(C)c(=O)c2c1 | 596 |
| O=C(CN1CCCc2nc(C3CC3)ncc2C1=O)NCCCN1CCOCC1 | 563 |
| CC1(C(=O)NCc2ccc(Cl)cc2)CN(S(C)(=O)=O)CC(=O)N1CCc1ccccc1 (configuration not stated) | 906 |
| CCc1ccc(NC(=O)C2CCCN(c3nc4c(s3)c(C)nn4-c3ccc(OC)cc3)C2)cc1 (configuration not stated) | 1360 |
| Cc1csc(NC(=O)CSc2ccc(-c3cccnc3)nn2)n1 | 589 |

| Compound | RP-LC retention time [s] |
| --- | --- |
| O=C(NCc1ccc2c(c1)OCO2)NCc1ccc2c(c1)OCO2 | 692 |
| Cc1cccc(CN2CCCn3nc(C(=O)NCc4ccco4)cc3C2=O)c1 | 810 |
| O=C(Cn1nc2c(N3CCSCC3)nccn2c1=O)NCCC1=CCCCC1 | 861 |
| O=C(NCc1ccccc1F)C1CCCN(c2nnc3ccc(Cl)cn23)C1 (configuration not stated) | 756 |
| O=C(NCCn1c(=O)n(Cc2ccccc2)c2cccnc21)c1cccnc1 | 650 |
| Cn1ccnc1SCC(=O)Nc1nc(-c2ccc(F)cc2)cs1 | 639 |
| O=C(NC1(c2nc(-c3ccccc3)no2)CCCCC1)c1ccc(Br)cc1 | 1240 |
| O=C1CC(c2noc(-c3cc(Cl)ccc3F)n2)CN1c1ccc(F)cc1 (configuration not stated) | 1100 |
| Cc1ccc(C)c(NC(=O)C(C)Oc2cc(C(F)(F)F)c3c(C)nn(C)c3n2)c1 (configuration not stated) | 1040 |
| Cc1sc(NC(=O)Cn2c(=O)sc3ccccc32)nc1-c1ccc(Cl)cc1 | 1110 |
| CCNc1nc(C)cc(N2CCN(C(=O)Nc3ccccc3)CC2)n1 | 636 |
| O=C(NCc1cccnc1)C1CCN(c2nnc3ccc(C(F)(F)F)cn23)CC1 | 536 |
| COc1cccc(S(=O)(=O)N2CCC3(CC2)C(OC)C(=O)N3c2cccc(F)c2)c1 (configuration not stated) | 1040 |
| CN(CC1CCOC1)C(=O)Nc1ccccc1C(F)(F)F (configuration not stated) | 713 |
| Cc1ccc(CNC(=O)Cn2c(N3CCCCC3)nc(C)cc2=O)cc1 | 661 |
| Cc1cc2c(=O)n(CC(=O)Nc3ccc(F)c(F)c3)ccc2s1 | 826 |
| COc1ccccc1NC(=O)c1oc2ccccc2c1NC(=O)c1c(F)cccc1Cl | 1180 |
| COc1cc(NC(=O)N2CCc3cn(C)c4cccc(c34)C2)cc(OC)c1 | 713 |
| COc1ccc(N2CCN(c3cc(SCC(=O)Nc4ccc(C)cc4Cl)ncn3)CC2)cc1 | 1200 |
| Cc1ncoc1C(=O)N1CCC(N2CC(OCC3CC3)C23CCOCC3)CC1 (configuration not stated) | 587 |
| Cc1ccc(C(=O)N2CC[C@H](CO)[C@H](N(C)C)C2)s1 | 577 |
| CCn1cc(-c2ccc(C)cc2)cc1C(=O)NC(C)c1cccnc1 (configuration not stated) | 736 |
| CCOc1ccc(NC(=O)Cn2c(C)nc3onc(C)c3c2=O)cc1 | 755 |

| Compound | RP-LC retention time [s] |
| --- | --- |
| O=C(c1cccc(F)c1)N1CCN(c2ccc(=O)n(-c3ccc(Cl)cc3)n2)CC1 | 871 |
| O=C(Cc1nnc(-c2ccc3ncccc3c2)o1)N1CCN(c2ccccc2)CC1 | 716 |
| CCCCN(C)c1ccc(NC(=O)CC(C)C)c(C(=O)O)c1 | 729 |
| Cn1cc(S(=O)(=O)N2CCC(C(=O)NC3CCCCCCC3)CC2)cc1C(=O)N1CCCC1 | 844 |
| Cc1ccc(Cn2nc3ccc(S(=O)(=O)N4CCOCC4)cn3c2=O)cc1 | 977 |
| CCCNC(=O)c1cn(-c2ccc(-c3nc(C4CC4)no3)cn2)cn1 | 815 |
| COc1c(C(=O)NC(C)(C)C)sc2ccc(F)cc12 | 1080 |
| CCCN(C)CC1(O)CCC2(CCN(C(=O)c3sccc3C)CC2)CC1 | 560 |
| Cc1cccc([N+](=O)[O-])c1NC(=O)C1CCCN(c2ccc(-n3cccn3)nn2)C1 (configuration not stated) | 711 |
| CN(CCc1noc(COc2ccccc2)n1)C(=O)c1c(F)cccc1F | 872 |
| O=C(c1nc(-c2cccs2)cs1)N1CCN(c2ccccc2)CC1 | 1130 |
| Cc1onc(C(=O)N2CCCCCCNC(=O)[C@@H]3CCCC[C@@H]32)c1CN1CCCCC1 | 686 |
| Cc1[nH]c(C(=O)N2CCC(CC(=O)NCCCN3CCCCC3)CC2)c(C)c1C | 606 |
| COc1cccc(-c2cn3ccn(-c4ccc(OC)c(Cl)c4)c(=O)c3n2)c1 | 850 |
| Cc1nn(C)c(C)c1CCC(=O)N1CCN(c2ncccn2)CC1 | 564 |
| Cc1ccc(S(=O)(=O)CCc2nc3ccccc3n2CC(=O)O)cc1 | 607 |
| CCOc1ccc(NS(=O)(=O)c2cc(C(=O)N3CCN(c4cccc(C)c4)C(C)C3)n[nH]2)cc1 (configuration not stated) | 899 |
| CN(C)CCN1C(=O)c2cccc3cc(N)cc(c23)C1=O | 626 |
| CCCCN1C(=O)CN(S(=O)(=O)c2ccc(C)cc2)CC1(C)C(=O)NCc1ccccc1 (configuration not stated) | 974 |
| O=C(CC1CCCCC1)NC(Cc1ccccc1)C(=O)N1CCN(c2ccccn2)CC1 (configuration not stated) | 695 |
| COc1ccc(OC)c(S(=O)(=O)NCC(c2cccs2)N2CCc3ccccc32)c1 (configuration not stated) | 1010 |
